Reference: patent publication US20230416275A1, “MODULATORS OF CYSTIC FIBROSIS TRANSMEMBRANE CONDUCTANCE REGULATOR” (VERTEX PHARMACEUTICALS INCORPORATED, priority 2020, published 2023)
Where two headings read alike, the source gives them in different places.

Key:
F508del in NIH 3T3 cells = target: T1, F508del in NIH 3T3 cells (Homo sapiens, UniProt P13569, DEL508-508); experiment: 3T3 assay: membrane potential optical assay for F508del correction; type: cell-based, mouse; settings: for EC50: compound incubation 18-24 hours at 37° C., forskolin activation; for Emax: NIH3T3, F508del NIH 3T3 cells, read-out: 3T3 Max Activity (%)
T1 construct: expressed in transfected cells
Outline: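 NIH3T3 mouse fibroblasts stably expressing F508del incubated with corrector compounds at a range of concentrations for 16-24 h at 37 °C, then loaded with voltage-sensing redistribution dye. Single addition of forskolin with Cl− gradient (chloride-free gluconate bath vs. NaCl bath, pH 7.4); membrane potential change read by fluorescence on FLIPR.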

[1] = target: CFTR-mediated chloride transport in human intestinal epithelial enteroid cells (Homo sapiens, UniProt P13569); experiment: Membrane potential dye, Enteroid Assay A; type: cell-based; settings: for Ent. A Max Activity (%): % of chloride transport of triple combination control (3 μM N-[(6-amino-2-pyridyl)sulfonyl]-6-(3-fluoro-5-isobutoxy-phenyl)-2-[(4S)-2,2,4-trimethylpyrrolidin-1-yl]pyridine-3-carboxamide, 3 μM tezacaftor, 300 nM acute ivacaftor); for EC50: enteroid cells, 18-24 hours incubation, acute 10 μM forskolin and 300 nM ivacaftor, read-out: Ent. A EC50
Outline: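 Enteroids seeded at 5000 cells/well were exposed to test compound in IEMM for 18-24 h at 37 °C, then loaded with methyl oxonol membrane potential dye. Chloride transport was triggered in chloride-free buffer with 10 μM forskolin, 100 μM IBMX and 300 nM Compound III, read by fluorescence for 15 min and expressed as % of a triple-combination control.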

[2] = F508del NIH 3T3 cells, read-out: 3T3 EC50
[3] = efficacy compared to lumacaftor in combination with acutely added 300 nM Ivacaftor

Sequence of CFTR-mediated chloride transport in human intestinal epithelial enteroid cells (P13569 with tags, fused parts or gaps DEL508-508): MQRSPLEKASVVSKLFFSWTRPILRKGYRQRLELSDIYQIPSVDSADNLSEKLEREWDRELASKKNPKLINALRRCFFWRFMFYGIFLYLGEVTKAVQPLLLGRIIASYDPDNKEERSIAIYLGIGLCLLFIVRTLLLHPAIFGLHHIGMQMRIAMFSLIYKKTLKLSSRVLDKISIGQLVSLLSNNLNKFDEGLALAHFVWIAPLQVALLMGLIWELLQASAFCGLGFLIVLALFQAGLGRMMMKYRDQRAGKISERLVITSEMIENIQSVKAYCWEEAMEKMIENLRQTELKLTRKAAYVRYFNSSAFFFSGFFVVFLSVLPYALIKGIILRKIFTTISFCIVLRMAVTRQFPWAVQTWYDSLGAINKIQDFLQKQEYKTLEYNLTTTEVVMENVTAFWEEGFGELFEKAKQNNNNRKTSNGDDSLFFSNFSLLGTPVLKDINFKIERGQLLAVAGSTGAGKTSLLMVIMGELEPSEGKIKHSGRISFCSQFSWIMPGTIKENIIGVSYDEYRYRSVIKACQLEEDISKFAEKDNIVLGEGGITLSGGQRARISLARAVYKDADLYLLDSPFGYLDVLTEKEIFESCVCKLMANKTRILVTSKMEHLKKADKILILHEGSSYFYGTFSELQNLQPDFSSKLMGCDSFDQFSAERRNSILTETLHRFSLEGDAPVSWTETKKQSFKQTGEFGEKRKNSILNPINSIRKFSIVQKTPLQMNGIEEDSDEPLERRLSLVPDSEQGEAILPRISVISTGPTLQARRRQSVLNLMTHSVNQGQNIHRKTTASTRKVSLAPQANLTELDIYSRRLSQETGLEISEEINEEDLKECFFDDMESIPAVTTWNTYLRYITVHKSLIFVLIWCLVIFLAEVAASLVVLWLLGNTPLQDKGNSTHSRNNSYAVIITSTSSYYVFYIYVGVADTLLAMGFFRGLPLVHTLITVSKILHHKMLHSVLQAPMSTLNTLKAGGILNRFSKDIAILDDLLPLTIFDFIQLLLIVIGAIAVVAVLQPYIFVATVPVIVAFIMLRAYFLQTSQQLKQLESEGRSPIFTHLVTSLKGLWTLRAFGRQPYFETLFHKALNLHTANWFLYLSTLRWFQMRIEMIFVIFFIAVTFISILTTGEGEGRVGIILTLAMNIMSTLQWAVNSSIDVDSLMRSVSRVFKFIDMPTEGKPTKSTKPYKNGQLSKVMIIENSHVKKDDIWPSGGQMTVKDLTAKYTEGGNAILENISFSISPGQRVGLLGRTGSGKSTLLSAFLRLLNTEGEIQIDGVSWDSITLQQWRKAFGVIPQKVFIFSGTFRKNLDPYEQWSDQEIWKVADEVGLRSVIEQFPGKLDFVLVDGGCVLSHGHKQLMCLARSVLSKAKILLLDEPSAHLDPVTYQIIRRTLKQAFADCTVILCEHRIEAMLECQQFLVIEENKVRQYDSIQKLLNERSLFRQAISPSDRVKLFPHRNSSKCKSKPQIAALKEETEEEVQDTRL
T1 sequence (P13569 with tags, fused parts or gaps DEL508-508): as above

Structure (SMILES) | EC50 (F508del in NIH 3T3 cells; [2]) | Emax (F508del in NIH 3T3 cells; [3]) | Ent. A Max Activity (%) [1] | EC50 [1] | other results
Cc1ccccc1-c1cc2nc(n1)NS(=O)(=O)c1cccc(c1)NC(=O)c1ccc(cc1)O2 [Compound 63, 5-(o-Tolyl)-9,9-dioxo-2-oxa-9λ^6-thia-6,8,15,23-tetraazatetracyclo[15.2.2.13,7.110,14]tricosa-1(19),3,5,7(23),10(22),11,13,17,20-nonaen-16-one] | – | – | – | – | ring closure, yield after HPLC (amide bond, 15-membered ring, HATU/DIEA, DMF, 3 steps): 1%; EC50 (F508del in NIH 3T3 cells; 3T3 EC50 (μM), F508del NIH 3T3 cells): 1 to 3 µM
Cc1ccccc1-c1cc2nc(n1)NS(=O)(=O)c1cccc(c1)Nc1cccc(c1)O2 | – | – | – | – | ring closure, yield after HPLC (other bond, 13-membered ring, CuI/pyrrole-2-carboxylic acid/K3PO4, DMSO, 65.2 mM, 3 steps): 2%
Cc1ccccc1-c1cc2nc(n1)NS(=O)(=O)c1cccc(c1)NC(=O)c1cccc(c1)O2 [Compound 54, 5-(o-Tolyl)-9,9-dioxo-2-oxa-9λ^6-thia-6,8,15,23-tetraazatetracyclo[15.3.1.13,7.110,14]tricosa-1(20),3,5,7(23),10(22),11,13,17(21),18-nonaen-16-one] | < 1 µM | > 60% | – | – | ring closure, yield after HPLC (from Cc1ccccc1-c1cc(Oc2cccc(C(=O)O)c2)nc(NS(=O)(=O)c2cccc(N)c2)n1, amide bond, 14-membered ring, HATU/DIEA, DMF, 81.2 mM, 0.33 h): 45%
Cc1cccc(C)c1-c1cc2nc(n1)NS(=O)(=O)c1cccc(n1)NC(=O)C1CC(CN(C(=O)OC(C)(C)C)C1)O2 (centres unmarked) | – | – | – | – | ring closure, yield after HPLC (from Cc1cccc(C)c1-c1cc(OC2CC(C(=O)Oc3c(F)c(F)c(F)c(F)c3F)CN(C(=O)OC(C)(C)C)C2)nc(NS(=O)(=O)c2cccc(N)n2)n1, amide bond, 14-membered ring, none (thermal, OPfp ester), NMP, 10.1 mM, 140.0 °C, 5.0 h, 5 steps): 1%
Cc1cccc(C)c1-c1cc2nc(n1)NS(=O)(=O)c1cccc(c1)NC(=O)C1CCCC(C1)O2 (mixture of isomers) [Compound 67, 5-(2,6-Dimethylphenyl)-9,9-dioxo-2-oxa-9λ^6-thia-6,8,15,23-tetraazatetracyclo[15.3.1.13,7.110,14]tricosa-3,5,7(23),10(22),11,13-hexaen-16-one] | < 1 µM | > 60% | – | – | ring closure, yield after HPLC (amide bond, 14-membered ring, HATU/DIEA, DMF, 100.0 mM, 3 steps): 20%
Cc1cccc(C)c1-c1cc2nc(n1)NS(=O)(=O)c1cccc(c1)NC(=O)CCCCO2 [Compound 72, 6-(2,6-Dimethylphenyl)-2,2-dioxo-9-oxa-2λ^6-thia-3,5,15,21-tetrazatricyclo[14.3.1.14,8]henicosa-1(20),4(21),5,7,16,18-hexaen-14-one] | < 1 µM | > 60% | – | – | ring closure, yield after HPLC (amide bond, 15-membered ring, HATU/DIEA, DMF, 5 steps): 3%
Cc1cccc(C)c1-c1cc2nc(n1)NS(=O)(=O)c1cccc(c1)NC(=O)[C@H]1CNC[C@@H](C1)O2 [Compound 47] | – | 30 to 60% | + (+ is <30%) | – | –
Cc1cccc(C)c1-c1cc2nc(n1)NS(=O)(=O)c1cccc(c1)NC(=O)[C@@H]1C[C@@H](CN(CC3CC3)C1)O2 [Compound 30] | < 1 µM | > 60% | ++ (++ is 30-60%) | 1000 to 3000 nM | –
Cc1cccc(C)c1-c1cc2nc(n1)NS(=O)(=O)c1cccc(c1)NC(=O)[C@@H]1C[C@@H](CN(CCC3(C(F)(F)F)CC3)C1)O2 [Compound 27] | < 1 µM | > 60% | +++ (+++ is >60%) | < 1000 nM | –
Cc1cccc(C)c1-c1cc2nc(n1)NS(=O)(=O)c1cccc(c1)NC(=O)[C@H]1CCC[C@H](C1)O2 (single isomer, unassigned) [Compound 68, 5-(2,6-dimethylphenyl)-9,9-dioxo-2-oxa-9λ^6-thia-6,8,15,23-tetraazatetracyclo[15.3.1.13,7.110,14]tricosa-3,5,7(23),10(22),11,13-hexaen-16-one] | < 1 µM | > 60% | ++ (++ is 30-60%) | 3000 to 30000 nM | –
Cc1cccc(C)c1-c1cc2nc(n1)NS(=O)(=O)c1cccc(c1)NC(=O)[C@@H]1C[C@@H](CN(C(=O)CC(C)(C)C)C1)O2 [Compound 45] | < 1 µM | > 60% | +++ (+++ is >60%) | 1000 to 3000 nM | –
Cc1cccc(C)c1-c1cc2nc(n1)NS(=O)(=O)c1cccc(c1)NC(=O)[C@@H]1C[C@@H](CN(CCC3CC3)C1)O2 [Compound 28] | < 1 µM | > 60% | ++ (++ is 30-60%) | < 1000 nM | –
Cc1cccc(C)c1-c1cc2nc(n1)NS(=O)(=O)c1cccc(c1)NC(=O)[C@H]1C[C@@H](CN(CCC(C)(C)C)C1)O2 [Compound 12, (3S,7S)-5-(3,3-Dimethylbutyl)-19-(2,6-dimethylphenyl)-2-oxa-15λ^6-thia-5,9,16,18,21-pentaazatetracyclo[15.3.1.13,7.110,14]tricosa-1(21),10(22),11,13,17,19-hexaene-8,15,15-trione] | < 1 µM | > 60% | ++ (++ is 30-60%) | 1000 to 3000 nM | –
Cc1cccc(C)c1-c1cc2nc(n1)NS(=O)(=O)c1cccc(c1)NC(=O)[C@@H]1CNC[C@H](C1)O2 [Compound 48] | 1 to 3 µM | > 60% | ++ (++ is 30-60%) | – | –
Cc1cccc(C)c1-c1cc2nc(n1)NS(=O)(=O)c1cccc(c1)NC(=O)[C@H]1C[C@@H](CN(C(=O)NC(C)(C)C)C1)O2 [Compound 42] | 3 to 30 µM | > 60% | + (+ is <30%) | – | –
Cc1cccc(C)c1-c1cc2nc(n1)NS(=O)(=O)c1cccc(c1)NC(=O)[C@H]1CCC[C@H](C1)O2 (single isomer, unassigned) [Compound 70, 5-(2,6-Dimethylphenyl)-9,9-dioxo-2-oxa-9λ^6-thia-6,8,15,23-tetraazatetracyclo[15.3.1.13,7.110,14]tricosa-3,5,7(23),10(22),11,13-hexaen-16-one] | 1 to 3 µM | – | ++ (++ is 30-60%) | 1000 to 3000 nM | 3T3 Max Activity (%) (F508del in NIH 3T3 cells; F508del NIH 3T3 cells, efficacy compared to lumacaftor in combination with acutely added 300 nM Ivacaftor): +++ (+++ is >60%)
Cc1cccc(C)c1-c1cc2nc(n1)NS(=O)(=O)c1cccc(c1)NC(=O)[C@H]1C[C@H](CN(C(=O)OC(C)(C)C)C1)O2 (single isomer, unassigned) [Compound 1] | < 1 µM | 30 to 60% | + (+ is <30%) | – | –
Cc1cccc(C)c1-c1cc2nc(n1)NS(=O)(=O)c1cccc(c1)NC(=O)CCc1cccc(c1)O2 [Compound 108] | < 1 µM | > 60% | +++ (+++ is >60%) | 3000 to 30000 nM | –
Cc1cccc(C)c1-c1cc2nc(n1)NS(=O)(=O)c1cccc(c1)NC(=O)c1cccc(c1)O2 [Compound 53, 5-(2,6-Dimethylphenyl)-9,9-dioxo-2-oxa-9λ^6-thia-6,8,15,23-tetraazatetracyclo[15.3.1.13,7.110,14]tricosa-1(20),3,5,7(23),10(22),11,13,17(21),18-nonaen-16-one] | < 1 µM | > 60% | +++ (+++ is >60%) | 3000 to 30000 nM | –
Cc1cccc(C)c1-c1cc2nc(n1)NS(=O)(=O)c1cccc(c1)NC(=O)[C@@H]1C[C@@H](CN(C(=O)OCCF)C1)O2 [Compound 33] | < 1 µM | > 60% | ++ (++ is 30-60%) | 1000 to 3000 nM | –
Cc1cccc(C)c1-c1cc2nc(n1)NS(=O)(=O)c1cccc(c1)NC(=O)[C@H]1C[C@H](CN(CCC(C)(C)C)C1)O2 [Compound 11, (3R,7S)-5-(3,3-Dimethylbutyl)-19-(2,6-dimethylphenyl)-2-oxa-15λ^6-thia-5,9,16,18,21-pentaazatetracyclo[15.3.1.13,7.110,14]tricosa-1(21),10(22),11,13,17,19-hexaene-8,15,15-trione] | < 1 µM | > 60% | + (+ is <30%) | – | –
Cc1ccccc1-c1cc2nc(n1)NS(=O)(=O)c1cccc(c1)NCc1cccc(c1)O2 [Compound 62, 5-(o-Tolyl)-2-oxa-9λ^6-thia-6,8,15,23-tetraazatetracyclo[15.3.1.13,7.110,14]tricosa-1(20),3,5,7(23),10(22),11,13,17(21),18-nonaene 9,9-dioxide] | < 1 µM | – | – | – | ring closure, yield after HPLC (amine bond, 14-membered ring, NaBH(OAc)3/TFA, AcOH, 3 steps): 1%
Cc1cccc(C)c1-c1cc2nc(n1)NS(=O)(=O)c1cccc(c1)NC(=O)[C@@H]1C[C@@H](CN(CC34CC(C3)C4)C1)O2 [Compound 25] | < 1 µM | > 60% | ++ (++ is 30-60%) | < 1000 nM | –
Cc1cccc(C)c1-c1cc2nc(n1)NS(=O)(=O)c1cccc(c1)NC(=O)C1CC(CN(C(=O)OC(C)(C)C)C1)O2 (centres unmarked) [Compound 123] | < 1 µM | > 60% | ++ (++ is 30-60%) | < 1000 nM | –
